Measured values: patent US20250361217A1, “FATTY ACID COMPOUNDS” (University of Pittsburgh - Of the Commonwealth System of …, priority 2022, published 2025)

Tests used:
[1] = Cassette PK of branched vs straight-chain FA-AA (NAA) conjugates, oral or intraperitoneal; assay type: in vivo, mice; conditions: 30 mg/kg; for levels in liver, rank among the groups / levels in plasma, rank among the groups: both intraperitoneal and oral administration
Protocol: A library of branched fatty acid-amino acid (FA-AA) conjugates was synthesized, exemplified in the table above. […] The absorption of the selected straight chain vs. branched FA-AA conjugates was compared in a cassette PK study as described below in more detail. A mixture of all the FA-AA conjugates (with or without branching) was concomitantly administered orally to mice (n=4-5, 30 mg/kg each compound). […] The absorption improvement resulting from the branching of the fatty acids was ubiquitous across all the FA-AA conjugates independent of the choice of amino acids. In contrast, all tested FA-AA conjugated dosed intraperitoneally (n=4-5, 30 mg/kg each compound) reached significant levels in circulation, bypassing the first-pass metabolism.
Two cassette PK experiments were performed to compare the pharmacokinetics of dimethyl acyl amino acids (acyl-2M-amino acids) with their natural, non-branched analogs and evaluate the increased half-life, oral bioavailability, and liver concentrations obtained by the invention (introduction of the dimethyl (2M) branching).
Groups of mice (n=4 per time point per group) were used. The compounds were delivered using a cassette pharmacokinetic design by oral gavage or by intraperitoneal injections at a dose of 30 mg/kg. Groups are detailed in table 1. To note, the methyl ester of C18:0-2M-Gly was abbreviated as C18:0-2M-Gly-Me.
The following groups were used, and the time points were 0, 1, 2, and 4 h for intraperitoneal administration and 0, 2, and 4 h for oral administration.

[2] = tested on: C57BL6 mice fed with the NASH diet; assay: Oral treatment in established NASH mouse model; assay type: in vivo; conditions: oral 10 mg/kg/day, 6 weeks
Protocol: This study defined the protective properties of branched FA-AA conjugates and the enhanced potency of 11U3-2M conjugated to Leucine (Leu) when administered orally in an established NASH mouse model. C57BL6 mice were fed with the NASH diet for 16 weeks and then orally administered with vehicle (n=10), C18:1-Leu (n=10), C18:1-2M-Leu (n=8) and 11U3-2M-Leu (n=12) (10 mg/kg/day) for 6 weeks while on the NASH diet. Mice were sacrificed and organs were collected for further analysis.

[3] = tested on: mice with established NASH; conditions: intraperitoneal administration; cited from earlier work

| Compound | levels in liver, rank among the groups [1] | levels in plasma, rank among the groups [1] | expression of genes regulating lipogenesis in liver [2] | fibrosis and cell death genes (e.g., collagens and TGF-b) in liver [2] | plasma alanine transaminase (ALT) [2] | plasma aspartate transaminase (AST) [2] | also measured |
| --- | --- | --- | --- | --- | --- | --- | --- |
| CCCc1ccc(CCCCCCCCCC(C)(C)C(=O)NCC(=O)O)o1 [11U3-2M-Gly, (2,2-Dimethyl-11-(5-propylfuran-2-yl)undecanoyl)glycine] | highest levels | highest levels |  |  |  |  |  |
| CCCCCCCCC=CCCCCCCC(C)(C)C(=O)N[C@@H](CC(C)C)C(=O)O [C18:1-2M-Leu, (2,2-dimethyloctadec-9-enoyl)leucine] |  |  | suppressed | anti-fibrotic actions | significantly decreased | significantly decreased |  |
| CCCCCCCC/C=C\CCCCCCCC(=O)N[C@@H](CC(C)C)C(=O)O [C18:1-Leu, N-oleoyl leucine] |  |  |  |  |  |  | steatosis, inflammation and fibrosis in mice with established NASH [3]: improved steatosis, and lowered inflammation and fibrosis |
| CCCc1ccc(CCCCCCCCCC(C)(C)C(=O)NC(CC(C)C)C(=O)O)o1 (stereo not shown) [11U3-2M-Leu] | highest levels | highest levels | suppressed | anti-fibrotic actions | significantly decreased | significantly decreased | plasma concentration over time (resistance to metabolism) vs 11U3-Leu ([1]; mice): maintained over a longer period; AUC0-4 vs all the straight-chain analogs ([1]; intraperitoneal): significantly higher; Cmax vs all the straight-chain analogs ([1]; intraperitoneal): significantly higher; metabolism vs all the straight-chain analogs ([1]; intraperitoneal): slower metabolism; cholesterol levels [2]: significantly decreased; expression of key genes regulating fatty acid oxidation (PPARα signaling pathway) in liver [2]: significantly induced; inflammatory effect in the NASH animals (FIG. 23) [2]: anti-inflammatory; liver weight in comparison to vehicle control [2]: significant decrease; liver/body weight ratio in comparison to vehicle control [2]: significant decrease |
